“Also recorded” adds a separate entry of the source. Read-outs that look alike come from different tables or passages of the source.
Key:
[1] = target: Sm.5HTR (Schistosoma mansoni, UniProt A0A173FEI8); assay: cell-based; settings: for antagonist activity at Sm.5HTR, in words: FIG. 18B
Experimental: HEK293 cells (ATCC CRL-1573.3) were cultured in growth media consisting of DMEM supplemented with GlutaMAX (Gibco cat #10566016)+10% heat inactivated fetal bovine serum and penicillin-streptomycin (100 units/mL, ThermoFisher). Stable cell lines for the pGloSensor-22F cAMP Plasmid (Promega) and schistosome 5HTRs in pcDNA3.1(−) were selected with hygromycin (200 μg/mL) and G418 (400 μg/mL). The correct identity of each stably expressed sequence was verified by isolating total RNA from each stable line (TRIzol Reagent, Ambion) and amplifying the sequence of interest with gene specific primers flanking the 5′ and 3′ regions of the cds (SuperScript® III One-Step RT-PCR System, Invitrogen). PCR products were ligated into a TA cloning vector (pGEM-T Easy, Promega) and sequenced.
HEK293 lines stably expressing both the 22F cAMP sensor and Sm.5HTR were cultured in growth media supplemented with 10% dialyzed FRS. For cAMP assays in 96 well format, cells cultured in T-75 flasks were trypsinized (TrypLE Express, Gibco) and plated in solid white 96 well plates (Costar cat #3917) the day prior to assay at a density of 2.5×10^4 cells/well. The following day media was removed and replaced with assay buffer consisting of HBSS buffered with HEPES (20 mM, pH 7.4)+BSA (0.1% w/v) and D-luciferin sodium salt (1 mg/mL, Gold Biotechnology). Plates were equilibrated at room temperature for 1 hour, at which point 3-Isobutyl-1-methylxanthine (IBMX 200 μM, Sigma Aldrich) was added. Plates were equilibrated a further 30 minutes prior to test compound addition. […] Readings performed in 384 well format were modified so that cells were assayed in suspension. Cells were grown to 70% confluence in T-75 flasks, trypsinized and pelleted (300 RCF×5 minutes). Media was removed and cells were resuspended in 25 mL assay buffer supplemented with IBMX (200 μM). A 96 channel semi-automated pipet (Eppendorf epMotion 96) delivered 55 μL of cell suspension per well (5000 cells/well) into solid white 384 plates (Corning 3574).

[2] = target: Sm.5HTR (Schistosoma mansoni, UniProt G4V5G4); format: cell-based; settings: for potency (IC50) at Sm.5HTR, lower right quadrant of FIG. 13: inhibition of cAMP generation; for activity at Sm.5HTR, in words: antagonist screen, FIG. 7
Sm.5HTR (Schistosoma mansoni, UniProt G4V5G4), sequence (G4V5G4 entry or part of it): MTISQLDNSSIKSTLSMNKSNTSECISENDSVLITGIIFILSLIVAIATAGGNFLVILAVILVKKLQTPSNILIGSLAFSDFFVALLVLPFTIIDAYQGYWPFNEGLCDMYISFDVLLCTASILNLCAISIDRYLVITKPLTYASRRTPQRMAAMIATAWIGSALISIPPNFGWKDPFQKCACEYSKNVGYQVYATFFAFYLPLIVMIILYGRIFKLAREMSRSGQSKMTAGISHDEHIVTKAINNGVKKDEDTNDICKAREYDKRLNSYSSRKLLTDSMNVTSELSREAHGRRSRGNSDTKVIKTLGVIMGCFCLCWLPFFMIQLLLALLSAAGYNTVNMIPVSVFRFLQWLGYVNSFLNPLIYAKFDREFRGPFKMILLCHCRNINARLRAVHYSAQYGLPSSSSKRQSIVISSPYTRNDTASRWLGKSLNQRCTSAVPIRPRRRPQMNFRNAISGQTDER
Experimental: (§1) HEK293 cells (ATCC CRL-1573.3) were cultured in DMEM supplemented with 10% fetal bovine serum (FBS), penicillin (100 units/mL), streptomycin (100 μg/mL), and L-glutamine (290 μg/mL). Cells were transiently transfected (ViaFect, Promega) as per the manufacturer's protocol at a density of 2×10^6 cells per T-25 cell-culture flask. Cells were transfected with plasmids encoding GloSensor (Promega) and either Sm.5HTR, (Smp_126730, GenBank accession number KF444051.1) or Sm.5HTRL (KX150867), both GPCRs being codon optimized for mammalian expression, or Hs.5HT7a (GenBank accession number NM_000872.4, R&D Systems) subcloned into pCS2(−). Cell culture reagents were from Invitrogen. Epitope tagged constructs were used to verify expression, and untagged constructs used for all luminescence assays.
(§2) For assays performed on adherent cells, HEK-293 cells were transferred one day post transfection to 96 well, solid white plates (Corning, cat #3917) coated with 0.01% poly-L-lysine (Sigma Aldrich) at a density of 5×10^4 cells/well in DMEM supplemented with 1% dialyzed FBS (Gibco). After overnight culture (37° C./5% CO2), media was decanted and replaced with 100 μL/well HBSS supplemented with 0.1% BSA, 20 mM HEPES (pH 7.4) and GloSensor™ reagent. Plates were allowed to equilibrate at room temperature for two hours prior to performing luminescence assays (GloMax-Multi Detection System plate reader, Promega). Conditions for individual assays were described as per figure legends. The standard assay to detect changes in cAMP utilized the F22 sensor in media supplemented with IBMX (200 μM). Ligands were added at a concentration of 20× per well for experiments (i.e., 5 μl of drug solution added to 100 μL of cells). […] For the resazurin reduction assay for cellular viability, cells were incubated with resazurin (final concentration, 10 μM) and tested ligands with fluorescence measurements (560 nm excitation/590 nm emission) made at 1.5 hours intervals.
(§3) The protocol for screening is shown schematically in FIG. 5A. HEK293 cells transiently transfected with either the human 5HT7 receptor (Hs.5HT7R) or the schistosome receptor (Sm.5HTR) were exposed to test ligands in a 96-well plate format. […] Luminescence was then read at a fixed time point (t=60 minutes, FIG. 5A). Hits were assigned as compounds that evoked a ≥50% decrease in luminescence output at the fixed time sampling point (FIG. 5B).

[3] = system: adult schistosomes; assay: Egg laying assay, adult schistosome pairs in vitro; format: cell-based, Schistosoma mansoni; settings: serotonin 100 μM, forskolin 100 μM, LSD 10 μM, nuciferine 10 μM, ergotamine 5 μM (FIG. 19F); eggs per worm pair/day over five days
From the text: Female Swiss Webster mice infected with S. mansoni cerceria (NMRI strain) were sacrificed 49 days post infection by CO2 euthanasia. Adult schistosomes were recovered by perfusion with a solution of 0.85% sodium chloride+0.75% sodium citrate and dissection of the mesenteric vasculature. Harvested schistosomes were washed in RPMI 1640 Medium with GlutaMAX+5% heat inactivated FBS (Gibco) and Penicillin-Streptomycin (final concentration 100 units/mL, ThermoFisher cat #15140122).
For egg laying assays, adult schistosomes were transferred to 24 well plates the day after harvesting from mice (5 worm pairs in 2 mL media per well). Eggs were counted under a stereomicroscope daily, after which worms were transferred to a new well with fresh drug containing media. Egg counts were recorded for five days, and data processed as the mean number of eggs laid per worm pair/day. Measurements of egg dimensions were quantified using the “analyze>measure” function in ImageJ to record the length and width of individual eggs.

[4] = target: T1, Hs.5HT7R (Homo sapiens, UniProt P34969); assay: GloSensor cAMP assay, HEK293 cells transiently transfected with Hs.5HT7R; format: cell-based; settings: for potency (IC50) at Hs.5HT7R, lower right quadrant of FIG. 13: inhibition of cAMP generation
T1 construct: host or cells: HEK293 (ATCC CRL-1573.3), transient, pCS2(−), co-transfected with GloSensor
T1 sequence (P34969 1-445 isoform P34969-2): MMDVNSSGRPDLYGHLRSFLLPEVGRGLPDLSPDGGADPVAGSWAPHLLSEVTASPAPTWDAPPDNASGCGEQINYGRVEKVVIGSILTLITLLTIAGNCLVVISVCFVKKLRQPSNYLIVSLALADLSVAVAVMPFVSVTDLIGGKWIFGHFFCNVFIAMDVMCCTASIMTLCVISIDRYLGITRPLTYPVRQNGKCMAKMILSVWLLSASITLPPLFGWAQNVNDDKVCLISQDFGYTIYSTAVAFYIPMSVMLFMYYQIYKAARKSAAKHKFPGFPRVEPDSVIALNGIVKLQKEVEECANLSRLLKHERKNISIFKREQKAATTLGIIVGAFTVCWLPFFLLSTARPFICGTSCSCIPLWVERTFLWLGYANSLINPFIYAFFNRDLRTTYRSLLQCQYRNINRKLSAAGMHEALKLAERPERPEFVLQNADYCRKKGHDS
Experimental: as §1, §2, §3

[5] = system: S. mansoni schistosomules; assay: Schistosomule contractility assay; format: cell-based; settings: Schistosoma mansoni
Experimental: FIGS. 14A-14F. […] Effects of selected ligands on schistosomules. […] A contractile cycle is defined when a deviation of ≥20% of the average body length (dashed lines) occurs.
Biomphalaria glabrata (M-line) snails exposed to Schistosoma mansoni miracidia (Strain PR-1) were obtained from BEI Resources (Cat. number NR-21961) and cercaria were shed following exposure to light (1.5 hours). Cercaria were manually transformed into schistosomula by vortexing (3×45 seconds, each separated by 3 minutes on ice) and tails were removed by gradient centrifugation (24 mL Percoll, 4 mL 10×EMEM, 1.5 ml penicillin-streptomycin, 1 mL of 1M HEPES in 0.85% NaCl, 9.5 ml distilled water) at 500 g/15 minutes at 4° C. Supernatant containing tails was discarded, and schistosomules were resuspended in Basch media and incubated (37° C., 5% CO2) overnight before conducting mobility assays. For contractility experiments, somules were incubated in 5-HT free Basch media to resolve a basal contractility rate. […] Schistosomules were incubated in 24 well plates (about 200 schistosomules/0.5 mL media per well) for 30 minutes (37° C./5% CO2) prior to acquiring videos of schistosome movement (1 minute recordings/well) using a Nikon Coolpix 5700 camera affixed to a Nikon Eclipse TS100 microscope (10× objective). The WrmTrck plugin for ImageJ was used to quantify worm mobility (El-Shehabi et al., 2012). Briefly, the major axis of each schistosomule body length was extracted from the raw output of WrmTrck and an average length was determined for the duration of the recording. Contractions were quantified by determining the number of episodes during which the worm body length deviated from the average by over 20%. S. mansoni protocols were approved by the Iowa State University Institutional Biosafety Committee.

[6] = target: Sm.5HTRL (Schistosoma mansoni, UniProt A0A173FEI8); assay: GloSensor cAMP assay, HEK293 cells transiently transfected with Sm.5HTRL; format: cell-based; settings: antagonists 10 μM; 5-HT EC80 dose 0.8 μM (FIG. 8)
Sm.5HTRL, sequence (A0A173FEI8 entry or part of it): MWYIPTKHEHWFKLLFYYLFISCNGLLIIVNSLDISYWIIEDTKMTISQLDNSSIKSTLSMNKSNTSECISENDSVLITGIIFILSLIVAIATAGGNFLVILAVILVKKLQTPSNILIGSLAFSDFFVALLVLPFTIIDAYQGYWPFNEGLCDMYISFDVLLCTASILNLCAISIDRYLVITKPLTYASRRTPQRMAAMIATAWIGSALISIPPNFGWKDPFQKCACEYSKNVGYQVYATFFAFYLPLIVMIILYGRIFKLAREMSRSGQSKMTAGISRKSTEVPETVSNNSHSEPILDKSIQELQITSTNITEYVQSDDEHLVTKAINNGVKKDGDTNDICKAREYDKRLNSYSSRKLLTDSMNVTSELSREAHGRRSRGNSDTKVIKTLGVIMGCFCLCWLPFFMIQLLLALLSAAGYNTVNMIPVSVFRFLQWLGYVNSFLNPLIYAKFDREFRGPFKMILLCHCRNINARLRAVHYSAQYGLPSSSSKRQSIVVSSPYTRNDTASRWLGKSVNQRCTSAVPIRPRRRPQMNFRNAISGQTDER
Experimental: as §1, §2

[7] = antagonism of 5-HT evoked cAMP, FIGS. 7, 12, 13
[8] = HEK293, agonist read, 45 minutes, read-out: Sm.5HTR Emax

Sm.5HTR (Schistosoma mansoni, UniProt A0A173FEI8), sequence (A0A173FEI8 entry or part of it): as above

## CCN(CC)C(=O)N[C@H]1C[C@@H]2c3cccc4[nH]cc(c34)C[C@H]2N(C)C1 [terguride]
[1]; 5-HT 500 nM, read-out: Sm.5HTR IC50 (antagonist)
  IC50: 400 ± 50 nM
[1]; FIG. 18C
  agonist activity at Sm.5HTR, in words: completely eliminates agonist activity

## CN1C[C@H](C(=O)N[C@]2(C)O[C@@]3(O)[C@@H]4CCCN4C(=O)[C@H](Cc4ccccc4)N3C2=O)C[C@@H]2c3cccc4[nH]cc(c34)C[C@H]21 [dihydroergotamine]
[2]; FIG. 10A
  agonist efficacy at Sm.5HTR, in words: partial agonism
[2]; FIG. 10A, read-out: EC50, agonist activity at Sm.5HTR
  EC50: 315 nM
[1]; HEK293, read-out: Sm.5HTR Emax
  Emax: 103 ± 11%

## COc1cc2c(cc1OC)-c1cc3ccc(OC)c(OC)c3c[n+]1CC2 [palmatine]
[2]; [7]
  selectivity Sm.5HTR versus Hs.5HT7R (IC50 (Hs.5HT7R)/IC50 (Sm.5HTR)), in words: decreased potency and selectivity for Sm.5HTR

## C=C[C@@]1(C)CC(=O)[C@]2(O)[C@@]3(C)[C@@H](O)CCC(C)(C)[C@@H]3[C@H](O)[C@H](OC(C)=O)[C@@]2(C)O1 [forskolin]
[3]
  decrease of egg laying: 62%

## COc1cc2c(cc1OC)C1CC(=O)C(CC(C)C)CN1CC2 (centres unmarked) [tetrabenazine]
[2]
  selectivity Sm.5HTR versus Hs.5HT7R (IC50 (Hs.5HT7R)/IC50 (Sm.5HTR)), in words: selectivity for Sm.5HTR retained
  potency (IC50) at Sm.5HTR, lower right quadrant of FIG. 13: sub-μM potency
[4]
  potency (IC50) at Hs.5HT7R, lower right quadrant of FIG. 13: supra-μM potency
[5]; read-out: inhibition of 5-HT evoked contractility
  inhibition at 100 µM: ~50%

## C[C@@H](CO)NC(=O)[C@@H]1C=C2c3cccc4[nH]cc(c34)C[C@H]2N(C)C1 [ergometrine]
[1]; [8]
  Emax: 61 ± 4%

## CCN(CC)C(=O)[C@@H]1C=C2c3cccc4[nH]cc(c34)C[C@H]2N(C)C1 [LSD, lysergic acid diethylamide]
[2]; >10 μM
  inhibition of 5-HT evoked cAMP generation at higher concentrations: almost complete inhibition
[2]; FIG. 10A
  agonist efficacy at Sm.5HTR, in words: no efficacy
[2]; antagonism of 5-HT evoked cAMP accumulation, FIG. 10F, read-out: affinity constants (KB), Schild regression analysis
  Kb: 629 nM
[2]; increasing doses of ligand, FIGS. 10B-D
  nature of antagonism: right-shift in the 5-HT dose-response relationship: competitive antagonism
[1]
  EC50: 250 ± 150 nM
[1]; HEK293, read-out: Sm.5HTR Emax
  Emax: 40 ± 26%
[3]
  decrease of egg laying: no effect

## COc1ccc2cc3[n+](cc2c1OC)CCc1cc2c(cc1-3)OCO2 [berberine]
[2]; [7]
  selectivity Sm.5HTR versus Hs.5HT7R (IC50 (Hs.5HT7R)/IC50 (Sm.5HTR)), in words: decreased potency and selectivity for Sm.5HTR

## CCN1CCCC1CNC(=O)c1cc(S(=O)(=O)CC)c(N)cc1OC (centres unmarked) [amisulpiride]
[2]
  activity at Sm.5HTR, in words: modest effects on Sm.5HTR

## CC1CCN(CC[C@H]2CCCN2S(=O)(=O)c2cccc(O)c2)CC1 [SB269970]
[2]
  activity at Sm.5HTR, in words: modest effects on Sm.5HTR
[2]; listed as SB 269970
  activity at Sm.5HTR, in words: completely lacked activity at Sm.5HTR

## O=S(=O)(c1ccccc1)c1cnc2c(N3CCNCC3)cccc2c1 [SB742457]
[2]
  activity at Sm.5HTR, in words: completely lacked activity at Sm.5HTR; also recorded: modest effects on Sm.5HTR
[4]; FIG. 7
  inhibition of Hs.5HT7R, in words: potent inhibitors of Hs.5HT7R

## CNCCC(Oc1ccc(C(F)(F)F)cc1)c1ccccc1 (centres unmarked) [fluoxetine]
[2]
  selectivity Sm.5HTR versus Hs.5HT7R (IC50 (Hs.5HT7R)/IC50 (Sm.5HTR)), in words: preferential selectivity toward Sm.5HTR

## COc1ccc2cc1Oc1ccc(cc1)C[C@H]1c3cc(c(OC)cc3CCN1C)Oc1c(OC)c(OC)cc3c1[C@H](C2)N(C)CC3 [tetrandrine]
[2]
  potency (IC50) at Sm.5HTR, lower right quadrant of FIG. 13: sub-μM potency
[4]
  potency (IC50) at Hs.5HT7R, lower right quadrant of FIG. 13: supra-μM potency
[5]; read-out: IC50, inhibition of 5-HT evoked contractions
  IC50: ≤ 1000 nM

## CC(C)[C@@]1(NC(=O)[C@@H]2C[C@@H]3c4cccc5[nH]cc(c45)C[C@H]3N(C)C2)O[C@@]2(O)[C@@H]3CCCN3C(=O)[C@H](Cc3ccccc3)N2C1=O [dihydroergocristine]
[1]
  antagonist activity at Sm.5HTR, in words: is an antagonist
[1]; [8]
  Emax: 22 ± 2%

## CNCC[C@@H](Oc1ccccc1C)c1ccccc1 [atomoxetine]
[2]
  selectivity Sm.5HTR versus Hs.5HT7R (IC50 (Hs.5HT7R)/IC50 (Sm.5HTR)), in words: clear selectivity for Sm.5HTR; also recorded: preferential selectivity toward Sm.5HTR
[6]
  inhibition of 5-HT evoked cAMP generation through Sm.5HTRL: inhibited 5-HT evoked cAMP generation through Sm.5HTRL

## COc1cc2c3c(c1OC)-c1ccccc1C[C@H]3N(C)CC2 [nuciferine]
[3]
  decrease of egg laying: no effect

## COc1cc2nc(N(C)CCCNC(=O)C3CCCO3)nc(N)c2cc1OC (centres unmarked) [alfuzosin]
[2]; [7]
  selectivity Sm.5HTR versus Hs.5HT7R (IC50 (Hs.5HT7R)/IC50 (Sm.5HTR)), in words: clear selectivity for Sm.5HTR
[6]
  inhibition of 5-HT evoked cAMP generation through Sm.5HTRL: inhibited 5-HT evoked cAMP generation through Sm.5HTRL

## CC(C)C[C@H]1C(=O)N2CCC[C@H]2[C@]2(O)O[C@](NC(=O)[C@@H]3C=C4c5cccc6[nH]cc(c56)C[C@H]4N(C)C3)(C(C)C)C(=O)N12 [α-ergocryptine]
[1]
  antagonist activity at Sm.5HTR, in words: loss of antagonist activity
[1]; agonist read, 45 minutes
  Sm.5HTR Emax: negligible activity

Source: patent US10426772B2, “Use of ergot alkaloids as an anthelmintic agent” (priority 2016, dated 2019)
